Patent US20220402862A1 (Intellia Therapeutics, Inc., priority 2019, published 2022)
Values joined by “and” are separate entries in the source; they are usually repeats but may differ in a detail not shown here. Identical values can stand only once.

What was measured:
[1] = pKa measurement of unformulated amine lipid (fluorescence, method of Jayaraman et al.); type: physicochemical; conditions: 100 μM in 0.1 M phosphate buffer, pH 2.0-12.0
Protocol: The pKa of each amine lipid was determined according to the method in Jayaraman, et al. (Angewandte Chemie, 2012) with the following adaptations. […] Lipid was diluted to 100 μM in 0.1 M phosphate buffer (Boston Bioproducts) where the pH ranged from 2.0-12.0. Fluorescence intensity was measured using excitation and emission wavelengths of 321 nm and 448 nm.

Transthyretin (TTR) = test: Serum TTR ELISA in mice after LNP dosing; type: in vivo, CD-1 female mice; conditions: guide G282 experiments; for Serum TTR % TSS: mouse serum TTR relative to TSS control; for Serum TTR: mouse serum, ELISA
How it was run: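 Serum mouse TTR was quantified by ELISA at 10,000-fold dilution for 0.1 mg/kg and 10,000/2,500-fold for 0.3 mg/kg. Samples came from female CD-1 mice (6–10 weeks) killed 6 or 7 days after a single intravenous LNP dose, usually 0.1 mg/kg.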

[2] = Dynamic light scattering of LNPs: Z-average diameter, number average diameter, PDI; type: physicochemical; conditions: LNP, sg:mRNA 1:1, N/P about 6, 50/9/38/3; Table 2, Experiments 2-20
How it was run: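 Values reported are the Z-average (intensity-weighted mean size), the number-average diameter and the PDI (spread of sizes, 0 = fully uniform). All three came from dynamic light scattering of LNP preparations after dilution in PBS.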

[3] = RNA encapsulation efficiency of LNPs (Ribogreen fluorescence assay); type: physicochemical; conditions: LNP, sg:mRNA 1:1, N/P about 6, amine lipid/DSPC/cholesterol/PEG-2k-DMG 50/9/38/3; Table 2, Experiments 2-20
How it was run: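 Encapsulation efficiency is (Total RNA − Free RNA)/Total RNA. Free RNA was quantified by RiboGreen fluorescence (488/525 nm, ~10 min, RT, dark) in plain TE buffer; total RNA was quantified after LNP lysis with 0.2% Triton X-100, both against RNA standard curves.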

pKa [1] | Number mean (nm) [2] | PDI [2] | Z-avg (nm) [2] | Encapsulation (%) [3] | SMILES | Serum TTR % TSS (Transthyretin (TTR)) [%] | Serum TTR (Transthyretin (TTR)) [µg/mL]
6.84 | 99.51 nm | 0.011 | 117.1 nm | 98% | CCCCCCCCCCOC(=O)CCCCCCCC(=O)OCC(COC(=O)CCCC(=O)OC(CCCCCCCC)CCCCCCCC)COC(=O)NCCN(CC)CC (stereo not shown) [Compound 88, 1-decyl 9-(3-(((2-(diethylamino)ethyl)carbamoyl)oxy)-2-(((5-(heptadecan-9-yloxy)-5-oxopentanoyl)oxy)methyl)propyl) nonanedioate] | 77 | 582
6.17 | 80.2 nm | 0.097 | 111.8 nm | 99% | CCCCCCCCCCOC(=O)CCCCCCCC(=O)OCC(COC(=O)CCCCCC(=O)OC(CCCCCCCC)CCCCCCCC)COC(=O)OCCCN(CC)CC (stereo not shown) [Compound 76, 1-decyl 9-(3-(((3-(diethylamino)propoxy)carbonyl)oxy)-2-(((7-(heptadecan-9-yloxy)-7-oxoheptanoyl)oxy)methyl)propyl) nonanedioate] | 81 | 735
6.44 | 76.95 nm | 0.035 | 95.57 nm | 99% | CCCCCCCCCCOC(=O)CCCCCCCC(=O)OCC(COC(=O)CCC(OCCCCCCCC)OCCCCCCCC)COC(=O)OCC1CCCN(C)C1 (stereo not shown) [Compound 71, 1-(3-((4,4-bis(octyloxy)butanoyl)oxy)-2-(((((1-methylpiperidin-3-yl)methoxy)carbonyl)oxy)methyl)propyl) 9-decyl nonanedioate] | 50 | 462
7.3 | 68 nm | 0.010 | 83 nm | 98% | CCCCC/C=C\C/C=C\CCCCCCCC(=O)OCC(COC(=O)CCCCN(CC)CC)COC(=O)CCC(OCCCCCCCC)OCCCCCCCC (stereo not shown) [Compound 28, 3-((4,4-bis(octyloxy)butanoyl)oxy)-2-(((5-(diethylamino)pentanoyl)oxy)methyl)propyl (9Z,12Z)-octadeca-9,12-dienoate] | 73 | 661
6.84 | 79.46 nm and 90.16 nm | 0.048 and 0.039 | 101 nm and 113.2 nm | 96% and 92% | CCCCCC/C=C\COC(=O)CCCCCC(=O)OCC(COC(=O)CCC(OCCCCCCCC)OCCCCCCCC)COC(=O)OCCCN(CC)CC (stereo not shown) [Compound 55, (Z)-1-(3-((4,4-bis(octyloxy)butanoyl)oxy)-2-((((3-(diethylamino)propoxy)carbonyl)oxy)methyl)propyl) 7-(non-2-en-1-yl) heptanedioate] | 51 | 442
6.45 | 92.74 nm | 0.020 | 110.9 nm | 98% | CCCCCCCCCCOC(=O)CCCCCCCC(=O)OCC(COC(=O)CCCN(CC)CC)COC(=O)CCC(OCCCCCCCC)OCCCCCCCC (stereo not shown) [Compound 75, 1-(3-((4,4-bis(octyloxy)butanoyl)oxy)-2-(((4-(diethylamino)butanoyl)oxy)methyl)propyl) 9-decyl nonanedioate] | 68 | 623
6.85 | 81.44 nm | 0.067 | 105.2 nm | 96% | CCCCCC/C=C\COC(=O)CCCC(=O)OCC(COC(=O)CCC(OCCCCCCCC)OCCCCCCCC)COC(=O)OCCCN(CC)CC (stereo not shown) [Compound 56, (Z)-3-((4,4-bis(octyloxy)butanoyl)oxy)-2-((((3-(diethylamino)propoxy)carbonyl)oxy)methyl)propyl non-2-en-1-yl glutarate] | 66 | 576
6.15 | 78.73 nm | 0.004 | 95.19 nm | 98% | CCCCCCCCCCCCCCOC(=O)CCCCCCCC(=O)OCC(COC(=O)CCC(OCCCCCCCC)OCCCCCCCC)COC(=O)OCCCN(CC)CC (stereo not shown) [Compound 93, 1-(3-((4,4-bis(octyloxy)butanoyl)oxy)-2-((((3-(diethylamino)propoxy)carbonyl)oxy)methyl)propyl) 9-tetradecyl nonanedioate] | 88 | 669
5.35 | 45 nm | 0.100 | 66 nm | 97% | CCCCC/C=C\C/C=C\CCCCCCCC(=O)OCC(COC(=O)CCC(OCCCCCCCC)OCCCCCCCC)COC(=O)CCN(CC)CC (stereo not shown) [Compound 27, 3-((4,4-bis(octyloxy)butanoyl)oxy)-2-(((3-(diethylamino)propanoyl)oxy)methyl)propyl (9Z,12Z)-octadeca-9,12-dienoate] | 93 | 841
6.08 | 75.67 nm | 0.028 | 93.13 nm | 99% | CCCCCCCCCCOC(=O)CCCCCCCCCCCC(=O)OCC(COC(=O)CCC(OCCCCCCCC)OCCCCCCCC)COC(=O)OCCCN(CC)CC (stereo not shown) [Compound 91, 1-(3-((4,4-bis(octyloxy)butanoyl)oxy)-2-((((3-(diethylamino)propoxy)carbonyl)oxy)methyl)propyl) 13-decyl tridecanedioate] | 84 | 633
6.13 | 83.64 nm | 0.019 | 99.24 nm | 99% | CCCCCCCCCCOC(=O)CCCCCCCC(=O)OCC(COC(=O)CCC(OCCCCCCCCC)OCCCCCCCCC)COC(=O)OCCCN(CC)CC (stereo not shown) [Compound 79, 1-(3-((4,4-bis(nonyloxy)butanoyl)oxy)-2-((((3-(diethylamino)propoxy)carbonyl)oxy)methyl)propyl) 9-decyl nonanedioate] | 39 | 351
6.16 | 86.08 nm | 0.086 | 114.2 nm | 95% | CCCCCC/C=C\COC(=O)CCCCCCCC(=O)OCC(COC(=O)CCC(OCCCCCCC)OCCCCCCC)COC(=O)OCCCN(CC)CC (stereo not shown) [Compound 84, (Z)-1-(3-((4,4-bis(heptyloxy)butanoyl)oxy)-2-((((3-(diethylamino)propoxy)carbonyl)oxy)methyl)propyl) 9-(non-2-en-1-yl) nonanedioate] | 71 | 648
6.16 | 77.35 nm | 0.022 | 93.69 nm | 99% | CCCCCCCCCCCCOC(=O)CCCCCCCC(=O)OCC(COC(=O)CCC(OCCCCCCCC)OCCCCCCCC)COC(=O)OCCCN(CC)CC (stereo not shown) [Compound 92, 1-(3-((4,4-bis(octyloxy)butanoyl)oxy)-2-((((3-(diethylamino)propoxy)carbonyl)oxy)methyl)propyl) 9-dodecyl nonanedioate] | 62 | 470
6.16 | 81.21 nm | 0.006 | 97.86 nm | 99% | CCCCCC/C=C\COC(=O)CCCCCCCC(=O)OCC(COC(=O)CCCCCC(=O)OC(CCCCCCCC)CCCCCCCC)COC(=O)OCCCN(CC)CC (stereo not shown) [Compound 85, (Z)-1-(3-(((3-(diethylamino)propoxy)carbonyl)oxy)-2-(((7-(heptadecan-9-yloxy)-7-oxoheptanoyl)oxy)methyl)propyl) 9-(non-2-en-1-yl) nonanedioate] | 84 | 762
6.79 | 89.4 nm | 0.008 | 107.3 nm | 95% | CCCCCCCCCCOC(=O)CCCCCCCC(=O)OCC(COC(=O)CCCC(=O)OC(CCCCCCCC)CCCCCCCC)COC(=O)CCCN(C)C (stereo not shown) [Compound 89, 1-decyl 9-(3-((4-(dimethylamino)butanoyl)oxy)-2-(((5-(heptadecan-9-yloxy)-5-oxopentanoyl)oxy)methyl)propyl) nonanedioate] | 102 | 774
5.3 | 45.32 nm | 0.085 | 64.68 nm | 97% | CCCCC/C=C\C/C=C\CCCCCCCC(=O)OCC(COC(=O)CCC(OCCCCCCCC)OCCCCCCCC)COC(=O)N1CCN(CC)CC1 (stereo not shown) [Compound 48, 3-((4,4-bis(octyloxy)butanoyl)oxy)-2-((((9Z,12Z)-octadeca-9,12-dienoyl)oxy)methyl)propyl 4-ethylpiperazine-1-carboxylate] | 82 | 915
